The target in one test is T1, α1D‐adrenoceptor (Homo sapiens, UniProt P25100).
T1 sequence (P25100 1-572): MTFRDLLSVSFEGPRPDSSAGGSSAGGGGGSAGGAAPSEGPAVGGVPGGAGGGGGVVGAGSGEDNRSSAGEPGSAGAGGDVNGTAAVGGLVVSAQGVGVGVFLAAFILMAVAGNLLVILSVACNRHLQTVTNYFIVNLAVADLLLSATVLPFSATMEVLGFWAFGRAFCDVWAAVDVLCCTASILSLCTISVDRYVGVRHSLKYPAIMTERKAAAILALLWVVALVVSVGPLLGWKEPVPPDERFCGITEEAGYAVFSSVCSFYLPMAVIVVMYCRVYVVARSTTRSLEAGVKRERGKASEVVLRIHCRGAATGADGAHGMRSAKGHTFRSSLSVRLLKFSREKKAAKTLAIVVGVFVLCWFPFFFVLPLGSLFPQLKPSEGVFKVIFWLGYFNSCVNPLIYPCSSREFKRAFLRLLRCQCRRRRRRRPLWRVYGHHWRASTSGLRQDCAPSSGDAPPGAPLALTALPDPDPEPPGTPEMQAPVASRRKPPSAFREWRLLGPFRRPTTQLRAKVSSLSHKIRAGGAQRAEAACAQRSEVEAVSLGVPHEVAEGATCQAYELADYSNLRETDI
The conditions noted are these: CHO-α1D cells.

The subject of test [1] is parent CHO cells (no transfected receptor). Put plainly: ERK1/2‐phosphorylation in parent CHO cells. Format: cell-based, Chinese hamster. The conditions noted are these: Cricetulus griseus, read-out: log EC50, ERK1/2‐phosphorylation in parent CHO cells (converted).

With `CC(C)C[C@H]1C(=O)N2CCC[C@H]2[C@]2(O)O[C@](NC(=O)[C@@H]3C=C4c5cccc6[nH]c(Br)c(c56)C[C@H]4N(C)C3)(C(C)C)C(=O)N12` [Bromocriptine], the “specific binding inhibited (early plateau)” value on α1D‐adrenoceptor came out at 71.2 ± 3.4%. Also, the EC50 in test [1] is 117 nM.

Source of the values: paper PMC9471048, “The signaling and selectivity of α‐adrenoceptor agonists for the human α2A, α2B and α2C‐adrenoceptors and comparison with human α1 and β‐adrenoceptors” (Pharmacology Research & Perspectives, 2022).
